Our source for the EC50 values is patent US11472808B2, “Substituted pyrrolo[1,2-c]pyrimidines as hepatitis B antiviral agents” (Enanta Pharmaceuticals, Inc., priority 2019, dated 2022).

Structures are written as SMILES. Bounds are passed on as bounds.

As usually defined, the EC50 is the concentration needed to bring the measured effect to its halfway point.

The subject of this assay is HBV. Briefly: HepAD38 anti-HBV assay: reduction of viral product accumulation (virion DNA qPCR, HBsAg/HBeAg ELISA). In kind it is cell-based. Conditions: Hepatitis B virus, 120 h; HepAD38 cells; concentration reducing viral product accumulation by 50% relative to no drug controls; harvest five days after compound addition; read-out: HepAD38 EC50. How it is done: Methods: HepAD38 cells are maintained as previously reported (Ladner et al, Antimicrob. Agents Chemother. 1997, […], 1715). Briefly, cells are passaged upon attaining confluency in DMEM/F12 media in the presence of 10% FBS, Penn/Strep, 250 μg/mL G418, and 1 μg/ml tetracycline. Novel compounds are screened by first washing cells three times with PBS to remove tetracycline, and plating in 96 well plates at 35,000 cells/well. Compounds dissolved in DMSO are then diluted 1:200 into wells containing cells. Five days after compound addition, material is harvested for analysis. For an extended 8 day analysis, cells are plated and treated as described above, but media and compound are refreshed on d2 and d5 post initial treatment.
On harvest day, virion DNA is obtained by lysing with Sidestep Lysis and Stabilization Buffer and then quantified via quantitative real time PCR. Commercially available ELISA kits are used to quantitate the viral proteins HBsAg (Alpco) or HbeAg (US Biological) by following the manufacturer's recommended protocol after diluting samples to match the linear range of their respective assays. Irrespective of readout, compound concentrations that reduce viral product accumulation in the cell lysates or supernatants by 50% relative to no drug controls (EC50) are reported; EC50 ranges are as follows: A<0.1 μM; B 0.1-0.4 μM; C>0.4 μM.
On the technique in general: Real-time PCR tracks product formation cycle by cycle.
Regarding `O=C(O)c1cccc(S(=O)(=O)N[C@H]2CC3=C(c4ccn(C(F)F)n4)[C@H](c4ccc(F)cc4Cl)N=C(c4nccs4)N3C2)c1` [Example 5], the concentration giving a half-maximal response (EC50) was less than 100 nM.

As for `CCCCS(=O)(=O)N[C@H]1CC2=C(c3ccn(C(F)F)n3)[C@H](c3ccc(F)cc3Cl)N=C(c3nccs3)N2C1` [Example 319], the half-maximal effective concentration (EC50) is less than 100 nM.

`O=C(O)C1CCN(S(=O)(=O)N[C@H]2CC3=C(c4ccn(C(F)F)n4)[C@H](c4ccc(F)cc4Cl)N=C(c4nccs4)N3C2)CC1` [Example 90]: the EC50 is less than 100 nM.

As for `O=C(N[C@H]1CC2=C(c3ccn(C(F)F)n3)[C@H](c3ccc(F)cc3Cl)N=C(c3nccs3)N2C1)c1cccnc1` [Example 227], the EC50 was less than 100 nM.

Regarding `O=S(=O)(N[C@H]1CC2=C(c3ccn(C(F)F)n3)[C@H](c3ccc(F)cc3Cl)N=C(c3nccs3)N2C1)C1CCCCC1` [Example 240], the concentration for a half-maximal effect (EC50) was less than 100 nM.

As to `O=C(O)c1ccc(C#CCN2CCN([C@H]3CC4=C(c5ccn(C(F)F)n5)[C@H](c5ccc(F)cc5Cl)N=C(c5nccs5)N4C3)C2=O)cc1` [Example 43], the EC50 is more than 400 nM.

Turning to `OC(c1c[nH]nn1)C1(F)CC2=C(c3ccn(C(F)F)n3)[C@H](c3ccc(F)cc3Cl)N=C(c3nccs3)N2C1` (some centres unmarked) [Example 184], the EC50 was more than 400 nM.

Consider `O=C(Nc1ccccc1)N1CCN([C@H]2CC3=C(c4ccn(C(F)F)n4)[C@H](c4ccc(F)cc4Cl)N=C(c4nccs4)N3C2)CC1` [Example 49], for which the EC50 was more than 400 nM.

In the case of `CC[C@H](NS(=O)(=O)N[C@H]1CC2=C(c3ccn(C(F)F)n3)[C@H](c3ccc(F)cc3Cl)N=C(c3nccs3)N2C1)c1ccccn1` [Example 351], the concentration for a half-maximal effect (EC50) was less than 100 nM.

In the case of `O=S(=O)(NCC1(O)CC1)N[C@H]1CC2=C(c3ccn(C(F)F)n3)[C@H](c3ccc(F)cc3Cl)N=C(c3nccs3)N2C1` [Example 158], the EC50 fell in the range of 100 to 400 nM.

In the case of `CC(=O)OCCCCS(=O)(=O)N[C@H]1CC2=C(c3ccn(C(F)F)n3)[C@H](c3ccc(F)cc3Cl)N=C(c3nccs3)N2C1` [Example 279], the EC50 was less than 100 nM.

Consider `C#CCNC[C@]1(O)CC2=C(c3ccn(C(F)F)n3)[C@H](c3ccc(F)cc3Cl)N=C(c3nccs3)N2C1` [Example 115], for which the concentration giving a half-maximal response (EC50) was more than 400 nM.

As to `O=C(N[C@H]1CC2=C(c3ccn(C(F)F)n3)[C@H](c3ccc(F)cc3Cl)N=C(c3nccs3)N2C1)C1CCCC1` [Example 238], the half-maximal effective concentration (EC50) was in the range of 100 to 400 nM.

Consider `O[C@]1(CNCc2ccccc2)CC2=C(c3ccn(C(F)F)n3)[C@H](c3ccc(F)cc3Cl)N=C(c3nccs3)N2C1` [Example 118], for which the EC50 is more than 400 nM.

`O=C(O)C1CCCN(CCS(=O)(=O)N[C@H]2CC3=C(c4ccn(C(F)F)n4)[C@H](c4ccc(F)cc4Cl)N=C(c4nccs4)N3C2)C1` (some centres unmarked) [Example 68]: the EC50 is more than 400 nM.

Regarding `O=C(NC1CC1)N[C@H]1CC2=C(c3ccn(C(F)F)n3)[C@H](c3ccc(F)cc3Cl)N=C(c3nccs3)N2C1` [Example 205], the EC50 is less than 100 nM.

`O=S(=O)(N[C@H]1CC2=C(c3ccn(C(F)F)n3)[C@H](c3ccc(F)cc3Cl)N=C(c3nccs3)N2C1)C1(C[C@H](O)CO)CC1` [Example 425]: the EC50 is less than 100 nM.

Turning to `O=S(=O)(NC1CCC1)N[C@H]1CC2=C(c3ccn(C(F)F)n3)[C@H](c3ccc(F)cc3Cl)N=C(c3nccs3)N2C1` [Example 415], the EC50 was less than 100 nM.

In the case of `CC1(C)CCCN(S(=O)(=O)N[C@H]2CC3=C(c4ccn(C(F)F)n4)[C@H](c4ccc(F)cc4Cl)N=C(c4nccs4)N3C2)C1` [Example 292], the EC50 is less than 100 nM.

For `CC(C)(NS(=O)(=O)N[C@H]1CC2=C(c3ccn(C(F)F)n3)[C@H](c3ccc(F)cc3Cl)N=C(c3nccs3)N2C1)c1ccccn1` [Example 318], the EC50 was less than 100 nM.

In the case of `O=C(Nc1ccccn1)OCCCS(=O)(=O)N[C@H]1CC2=C(c3ccn(C(F)F)n3)[C@H](c3ccc(F)cc3Cl)N=C(c3nccs3)N2C1` [Example 327], the EC50 was less than 100 nM.

For the compound `O=S(=O)(NCCCc1ccccn1)N[C@H]1CC2=C(c3ccn(C(F)F)n3)[C@H](c3ccc(F)cc3Cl)N=C(c3nccs3)N2C1` [Example 350], the EC50 was 100 to 400 nM.

For the compound `CS(=O)(=O)Nc1ccc(NS(=O)(=O)N[C@H]2CC3=C(c4ccn(C(F)F)n4)[C@H](c4ccc(F)cc4Cl)N=C(c4nccs4)N3C2)cc1` [Example 349], the EC50 is less than 100 nM.

On to `O=C(N[C@H]1CC2=C(c3ccn(C(F)F)n3)[C@H](c3ccc(F)cc3Cl)N=C(c3nccs3)N2C1)N1CCC(O)(c2nccs2)CC1` [Example 244], for which the EC50 lay in the range of 100 to 400 nM.

In the case of `O=C(O)c1ccc(NC(=O)N2CCN([C@H]3CC4=C(c5ccn(C(F)F)n5)[C@H](c5ccc(F)cc5Cl)N=C(c5nccs5)N4C3)CC2)cc1` [Example 47], the EC50 was more than 400 nM.

Regarding `O=C(N[C@H]1CC2=C(c3ccn(C(F)F)n3)[C@H](c3ccc(F)cc3Cl)N=C(c3nccs3)N2C1)[C@@H]1CC1c1ccccn1` (relative stereo) [Example 312], the concentration for a half-maximal effect (EC50) lay within 100 to 400 nM.

For `O=S(=O)(NCc1ncc[nH]1)N[C@H]1CC2=C(c3ccn(C(F)F)n3)[C@H](c3ccc(F)cc3Cl)N=C(c3nccs3)N2C1` [Example 314], the EC50 was in the range of 100 to 400 nM.

Consider `C[C@H](NS(=O)(=O)N[C@H]1CC2=C(c3ccn(C(F)F)n3)[C@H](c3ccc(F)cc3Cl)N=C(c3nccs3)N2C1)c1ccccn1` [Example 160], for which the EC50 was less than 100 nM.

On to `COC(=O)CC1CCN(CCS(=O)(=O)N[C@H]2CC3=C(c4ccn(C(F)F)n4)[C@H](c4ccc(F)cc4Cl)N=C(c4nccs4)N3C2)CC1` [Example 61], for which the EC50 is less than 100 nM.

As for `O=S(=O)(Nc1ccc(-c2ccccn2)cc1)N[C@H]1CC2=C(c3ccn(C(F)F)n3)[C@H](c3ccc(F)cc3Cl)N=C(c3nccs3)N2C1` [Example 346], the concentration for a half-maximal effect (EC50) was less than 100 nM.

On to `C=CS(=O)(=O)N([C@H]1CC2=C(c3ccn(C(F)F)n3)[C@H](c3ccc(F)cc3Cl)N=C(c3nccs3)N2C1)S(=O)(=O)C=C` [Example 51], for which the EC50 was more than 400 nM.

As for `COC(=O)c1ccccc1CS(=O)(=O)N[C@H]1CC2=C(c3ccn(C(F)F)n3)[C@H](c3ccc(F)cc3Cl)N=C(c3nccs3)N2C1` [Example 22], the EC50 lay within 100 to 400 nM.

Turning to `N#CC[C@]1(F)CC2=C(c3ccn(C(F)F)n3)[C@H](c3ccc(F)cc3Cl)N=C(c3nccs3)N2C1` [Example 193], the EC50 is more than 400 nM.

For the compound `CS(=O)(=O)c1ccc(NS(=O)(=O)N[C@H]2CC3=C(c4ccn(C(F)F)n4)[C@H](c4ccc(F)cc4Cl)N=C(c4nccs4)N3C2)cc1` [Example 347], the EC50 lay within 100 to 400 nM.

Turning to `COC(=O)c1ccc(C#CCN2CCN([C@H]3CC4=C(c5ccn(C(F)F)n5)[C@H](c5ccc(F)cc5Cl)N=C(c5nccs5)N4C3)C2=O)cc1` [Example 42], the EC50 was more than 400 nM.

On to `Fc1ccc([C@@H]2N=C(c3nccs3)N3C[C@@H](Nc4cccc(-c5ccccn5)c4)CC3=C2c2ccn(C(F)F)n2)c(Cl)c1` [Example 331], for which the EC50 fell in the range of 100 to 400 nM.

Regarding `O=C(N[C@H]1CC2=C(c3ccn(C(F)F)n3)[C@H](c3ccc(F)cc3Cl)N=C(c3nccs3)N2C1)c1ncc[nH]1` [Example 234], the EC50 was less than 100 nM.

Turning to `O=C(N[C@H]1CC2=C(c3ccn(C(F)F)n3)[C@H](c3ccc(F)cc3Cl)N=C(c3nccs3)N2C1)N1CCC[C@@H](O)C1` [Example 223], the EC50 was in the range of 100 to 400 nM.

For `O=C1NCCN1[C@H]1CC2=C(c3ccn(C(F)F)n3)[C@H](c3ccc(F)cc3Cl)N=C(c3nccs3)N2C1` [Example 40], the 50% effective concentration (EC50) lay in the range of 100 to 400 nM.

With `OCC[C@]1(F)CC2=C(c3ccn(C(F)F)n3)[C@H](c3ccc(F)cc3Cl)N=C(c3nccs3)N2C1` [Example 167], the EC50 was more than 400 nM.

For the compound `O=C(O)c1ccccc1CS(=O)(=O)N[C@H]1CC2=C(c3ccn(C(F)F)n3)[C@H](c3ccc(F)cc3Cl)N=C(c3nccs3)N2C1` [Example 23], the half-maximal effective concentration (EC50) was in the range of 100 to 400 nM.

Regarding `O[C@]1(CN2CCOCC2)CC2=C(c3ccn(C(F)F)n3)[C@H](c3ccc(F)cc3Cl)N=C(c3nccs3)N2C1` [Example 138], the EC50 was more than 400 nM.

In the case of `O=C(N[C@H]1CC2=C(c3ccn(C(F)F)n3)[C@H](c3ccc(F)cc3Cl)N=C(c3nccs3)N2C1)N1CCCCC1` [Example 206], the concentration for a half-maximal effect (EC50) lay within 100 to 400 nM.

With `O=S(=O)(N[C@H]1CC2=C(c3ccn(C(F)F)n3)[C@H](c3ccc(F)cc3Cl)N=C(c3nccs3)N2C1)NC1(c2ccccn2)CC1` [Example 321], the EC50 was less than 100 nM.

Consider `O[C@@]1(Cn2cccn2)CC2=C(c3ccn(C(F)F)n3)[C@H](c3ccc(F)cc3Cl)N=C(c3nccs3)N2C1` [Example 121], for which the EC50 is more than 400 nM.

For the compound `OCC[C@@]1(F)CC2=C(c3ccn(C(F)F)n3)[C@H](c3ccc(F)cc3Cl)N=C(c3nccs3)N2C1` [Example 168], the EC50 was less than 100 nM.

For `O=S(=O)(N[C@H]1CC2=C(c3ccn(C(F)F)n3)[C@H](c3ccc(F)cc3Cl)N=C(c3nccs3)N2C1)N[C@@H](c1ccccn1)C1CC1` [Example 354], the 50% effective concentration (EC50) lay in the range of 100 to 400 nM.

For the compound `CCOC(=O)C1CCN(CCS(=O)(=O)N[C@H]2CC3=C(c4ccn(C(F)F)n4)[C@H](c4ccc(F)cc4Cl)N=C(c4nccs4)N3C2)CC1` [Example 58], the 50% effective concentration (EC50) is 100 to 400 nM.

In the case of `COC(=O)Cc1ccc(S(=O)(=O)N[C@H]2CC3=C(c4ccn(C(F)F)n4)[C@H](c4ccc(F)cc4Cl)N=C(c4nccs4)N3C2)cc1` [Example 35], the half-maximal effective concentration (EC50) was less than 100 nM.

With `O=C(N[C@H]1CC2=C(c3ccn(C(F)F)n3)[C@H](c3ccc(F)cc3Cl)N=C(c3nccs3)N2C1)N1CCC(O)(c2ncc(C3CC3)s2)CC1` [Example 246], the EC50 is 100 to 400 nM.
